Earlier results, collected in patent US6737441B2, “Treatment of helicobacter with isothiocyanates” (priority 2000, dated 2004).

Conditions: in cell culture; cited from earlier work

| Compound | activity as inducers relative to sulforaphane and sulforaphene |
| --- | --- |
| C[S+]([O-])CCCCCN=C=S (centres unmarked) [alyssin] | less active |
| CS(=O)(=O)CCCN=C=S [cheirolin] | less active |
| CS(=O)(=O)CCCCN=C=S [erysolin] | less active |
| C[S+]([O-])CCCN=C=S (centres unmarked) [iberin] | less active |
| CSCCCN=C=S [iberverin] | less active |
